Measured values from patent publication US20100022559A1, “BISOXIMES AS FUNGICIDES” (BAYER CROPSCIENCE AG, priority 2006, published 2010).

System: Puccinia recondita
Experiment: Puccinia Recondita Test (Cereal)/Seed Treatment
Format: in vivo
Conditions: 50 g/100 kg of seed; seed treatment; evaluation about 7 days after inoculation
Procedure: Puccinia Recondita Test (Cereal)/Seed Treatment
The active compounds are applied as liquid dressings, 1 part by weight of the active compound being mixed with 10 parts by weight of a solvent. For each concentration tested, the appropriate volume from the mixture is pipetted. For the dressing, the preparation is pipetted onto the seed and the seed is shaken in a closed glass bottle for 3 minutes. At 3×12 grains, the seed is sown into a soil/sand mixture in pots. The pots are initially incubated at 5° C. in the dark for 14 days and then cultivated in a greenhouse at a temperature of about 10° C. and 15 hours of light per day for a further 14 days. The plants are then sprayed with a spore suspension of Puccinia recondita and subsequently placed in an incubation cabin at 18° C. and 100% relative atmospheric humidity for 48 hours. The plants are then placed in a greenhouse at a temperature of about 18° C. and a relative atmospheric humidity of 80%. Evaluation is carried out about 7 days after the inoculation. 0% means an efficacy which corresponds to that of the control, whereas an efficacy of 100% means that no infection is observed.

SMILES | efficacy [%]
CC(=NOCC(C)(C)CON=C(C)c1cccc(C)n1)c1cccc(C)n1 (single isomer, unassigned) [Compound 141] | ≥ 70

System: not listed separately
Experiment: logP determination by HPLC on a reversed-phase column (C 18), EEC Directive 79/831 Annex V.A8
Format: physicochemical
Conditions: method marked [b] in Table 1
Procedure: The stated logP values were determined in accordance with EEC Directive 79/831 Annex V.A8 by HPLC (high performance liquid chromatography) on a reversed-phase column (C 18). Temperature: 43° C.

SMILES | logP
C=C(CON=Cc1cccc(C)n1)CON=C(C)c1cccc(C)n1 [compound 663] | 2.54^[b]
COCc1nc(/C(N)=N/OCc2ccccc2CO/N=C(\N)c2nc(COC)c(C)c(COC)n2)nc(COC)c1C [compound 708] | 2.16^[b]
CC(=NOCC(CON=C(C)c1ccc(C)c(C)n1)Cc1ccccc1)c1ccc(C)c(C)n1 (stereo not drawn) [Compound 581] | 5.01^[b]

Other lines, results leading:

logP | SMILES
5.71^[b] | CCCC1=NOC(CON=C(CCC)c2cccc(C)n2)(CON=C(CCC)c2cccc(C)n2)C1 (stereo not drawn) [Compound 618]
3.85^[b] | CC(=NOCC1(CON=C(C)c2cccc(C)n2)CC(C(C)(C)C)=NO1)c1cccc(C)n1 (stereo not drawn) [Compound 600]
6.51^[b] | CCCC(=NOCC1(CON=C(CCC)c2cccc(C)n2)CC(c2ccccc2Cl)=NO1)c1cccc(C)n1 (stereo not drawn) [compound 623]
2.20^[b] | CCCC1=NOC(CON=C(C)c2cc(C)cc(C)n2)(CON=C(C)c2cc(C)cc(C)n2)C1 (stereo not drawn) [compound 640]
5.21^[b] | CCC(=NOCC1(CON=C(CC)c2cccc(C)n2)CC(CC(C)C)=NO1)c1cccc(C)n1 (stereo not drawn) [compound 609]

Same assay, conditions: method marked [c] in Table 1

logP | SMILES
7.05^[c] | CC(=NOCC(CON=C(C)c1ccc(C)c(C)n1)Cc1ccccc1)c1ccc(C)c(C)n1 (stereo not drawn) [Compound 581]

Same assay, conditions: method marker [a] (footnote not shown); isomer A / isomer B / isomer mixture as noted in the cell

logP | SMILES
6.22^a] | Cc1cccc(C(=NOCC(C)CON=C(c2cccc(C)n2)C(C)C)C(C)C)n1 (stereo not drawn) [compound 138]
2.15^[a] (isomer A) | CC(=NOCCCON=C(C)c1ncccc1C)c1ncccc1C (single isomer, unassigned) [compound 85]

Same assay, conditions: method marker [b]; isomer A / isomer B / isomer mixture as noted in the cell

SMILES | logP
C=C(CON=C(C)c1cccc(C)n1)CON=C(N)c1nc(C)cc(OC)n1 [Compound 186] | 2.11^[b]
C=C(CON=C(C)c1cccc(C)n1)CON=C(N)c1ncc(F)cc1F [compound 242] | 2.48^[b)

The remaining lines, values ahead:

logP | SMILES
4.40^[b] (isomer A) | CC(=NOCC(C)(C)CON=C(C)c1cccc(C)n1)c1cccc(C)n1 (single isomer, unassigned) [Compound 141]
3,16^[b] | CC(=NOCCCCON=C(C)c1cccc(C)n1)c1cccc(C)n1 [compound 6]

Same assay, conditions: value marked [a]

logP | SMILES
2.04^[a] | CC(=NOC(=O)NCCCCNC(=O)ON=C(C)c1ccc(C)c(C)n1)c1ccc(C)c(C)n1 [compound 851]
4.06^[a] | CCOC(=O)c1cccc(C(C)=NOCCCON=C(C)c2cccc(C(=O)OCC)n2)n1 [compound 257]
5.03^[a] | CCOC(=O)c1cccc(C(C)=NOCC(C)CON=C(C)c2cccc(C(=O)OCC)n2)n1 (stereo not drawn) [compound 258]

Same assay, conditions: value marked [b]

SMILES | logP
COCc1nc(C(N)=NOC/C=C/CON=C(N)c2nc(COC)c(C)c(COC)n2)nc(COC)c1C (single isomer, unassigned) [compound 768] | 1.68^[b] (isomer A)
C=CCCC(=NOCC(C)CON=C(C)c1cccc(C)n1)c1ncccc1C (stereo not drawn) [compound 424] | 4.10^[b]
CCCC(=NOCCCCCCON=C(C)c1cccc(C)n1)c1cccc(C)n1 [compound 345] | 6.16^[b]
CC(=NOCCCCON=C(C)c1cccc(C)n1)c1ccc2c(c1)CC(C)O2 (stereo not drawn) [compound 441] | 4.91^[b]
C=C(CON=C(C#CC)c1cccc(C)n1)CON=C(C#CC)c1cccc(C)n1 [compound 803] | 3.07^[b]
CC(=NOCCCCCCON=C(C)c1ccccc1Cl)c1cccc(C)n1 [compound 391] | 5.84^[b]
CC(=NOCC(C)(C)CON=C(C)c1cccc(C)n1)c1cnccn1 [compound 515] | 3.70^[b]

The remaining lines, values ahead:

logP | SMILES
5.78^[b] | CCc1cccc(C(C)=NOCC(C)(C)CON=C(C)c2cccc(C)n2)n1 [Compound 370]
4.77^[b] | CC(=NOCC1(CON=C(C)c2cccc(C)n2)CCC1)c1cccc(C)n1 [Compound 289]

System: larvae of the mustard beetle (Phaedon cochleariae)
Experiment: Phaedon test (spray treatment)
Format: in vivo
Conditions: active compound concentration 500 ppm, after 7 days, chinese cabbage leaf discs
Procedure: (§1) [table] To produce a suitable preparation of active compound, 1 part by weight of active compound is mixed with the stated amounts of solvents and emulsifier, and the concentrate is diluted with emulsifier-containing water to the desired concentration. Discs of chinese cabbage (Brassica pekinensis) are sprayed with an active compound preparation of the desired concentration and, after drying, populated with larvae of the mustard beetle (Phaedon cochleariae). After the desired period of time, the effect in % is determined. 100% means that all beetle larvae have been killed; 0% means that none of the beetle larvae have been killed.

SMILES | efficacy [%]
CCCC1=NOC(CON=C(CCC)c2cccc(C)n2)(CON=C(CCC)c2cccc(C)n2)C1 (stereo not drawn) [Compound 618] | 100

System: green peach aphid (Myzus persicae)
Experiment: Myzus test (spray treatment)
Format: in vivo
Conditions: active compound concentration 500 ppm, after 5 days, chinese cabbage leaf discs
Procedure: as §1, with “pekinensis) which are infested by all stages of the green peach aphid (Myzus persicae)” for “pekinensis)”, “concentration.” for “concentration and, after drying, populated with larvae of the mustard beetle (Phaedon cochleariae).”, “aphids” for “beetle larvae”

SMILES | efficacy [%]
CC(=NOCC1(CON=C(C)c2cccc(C)n2)CC(C(C)(C)C)=NO1)c1cccc(C)n1 (stereo not drawn) [Compound 600] | 100
